Laboratory results published in paper PMC8070256, “Feasibility of Developing Radiotracers for MDM2: Synthesis and Preliminary Evaluation of an ^18F-Labeled Analogue of the MDM2 Inhibitor SP-141” (Pharmaceuticals, 2021).

Experiments:
[1] = system: MDM2 gene expression; settings: AML patients, peripheral blasts, after 10 days of treatment; cited from earlier work
[2] = system: MCF-7 cells; test: Cell uptake of [^18F]1 in MCF-7 cells after 21 h pretreatment; type: cell-based, human; settings: MCF-7 cells
Procedure: (§1) The ability of [^18F]1 to bind to MDM2 expressing human tumor cells was assessed using two wild-type p53 cell lines, MCF-7 breast adenocarcinoma, and HepG2 hepatocellular carcinoma. These cell lines have significant MDM2 expression levels and have been utilized previously for assessing potential MDM2 inhibitors, including SP-141 [12, 24, 25]. […] Thus, to examine the uptake and specificity of [^18F]1 by MDM2 expressing tumor cell lines, MCF-7 and HepG2 cells were treated with 0, 1, 5, or 10 µM SP-141 for 21 h, and then assessed for [^18F]1 uptake for 1 h.
(§2) Cell uptake studies of [^18F]1 were conducted using MCF-7 and HepG2 cell lines. Briefly, cells plated in 24-well plates (200,000/well) were treated with varying concentrations of SP-141 (1, 5, or 10 µM) or vehicle for 21 h and incubated with a fresh medium containing [^18F]1 (~18.5 kBq in 0.5 mL medium) for 1 h. Next, the incubation medium was removed, cells were rinsed with cold PBS (3 × 0.5 mL) and lysed using Cell Culture Lysis Reagent (0.25 mL, Promega Corporation, Madison, WI, USA) followed by a rinse with PBS (0.125 mL/well). For each well, the supernatant, PBS washes, and the cell lysate were measured for radioactivity in an automated gamma counter (Wallac Wizard™, Perkin Elmer, Waltham, MA, USA). Subsequently, cell lysates were analyzed for protein concentration using the Bradford assay (Bio-Rad, Hercules, CA, USA). Cell uptake for each well was normalized to its protein content and expressed as % uptake/mg protein. Results are presented as mean ± SD for three wells.

[3] = system: HepG2 cells; test: Cell uptake of [^18F]1 in HepG2 cells after 21 h pretreatment; type: cell-based, human; settings: HepG2 cells
Procedure: as §1
as §2, with “Briefly, cells plated in 24-well plates (200,000/well) were treated with varying concentrations of SP-141 (1, 5, or 10 µM) or vehicle for 21 h and incubated with a fresh medium containing [^18F]1 (~18.5 kBq in 0.5 mL medium) for 1 h.” left out

[4] = system: HepG2 cells; test: [^18F]1 uptake with or without co-incubated 100 µM SP-141, HepG2; type: cell-based, human; settings: 100 µM SP-141 co-incubation, 15 min
Procedure: (§3) Because MDM2 is a transcriptional target of p53, stabilization of p53 levels after MDM2 inhibition with SP-141 is expected to cause a temporary increase in MDM2 protein expression via the autoregulatory loop. Thus, we hypothesized that treatment of tumor cells with high concentrations of SP-141 for shorter periods (e.g., <4 h) might induce MDM2 expression as a consequence of p53 activation, whereas low concentrations of SP-141 (≤1 µM) and longer incubation times (≥20 h) appear to promote MDM2 degradation in vitro. To investigate this, MCF-7 and HepG2 cells were incubated with or without 100 µM SP-141 for 15–120 min, and uptake was measured as a percentage input dose for each time point. Hep3B, a p53 null cell line, was used as a negative control. […]
(§4) For these studies, MCF-7 (WT-p53), HepG2 (WT-p53), and Hep3B (p53 null) cells were plated in 24-well plates (20,000/well) and incubated with [^18F]1 (~18.5 kBq in 0.5 mL) with or without 100 µM SP-141 for 15–120 min under standard cell culture conditions. […] The radioactivity in supernatants, wash fractions, and cell lysates was counted for each well using the gamma counter (Wallac Wizard). Cell uptake was calculated as the percentage of the input dose for the two treatment conditions (with/without 100 µM SP-141).

[5] = system: Hep3B cells; test: [^18F]1 uptake with or without co-incubated 100 µM SP-141, Hep3B; type: cell-based, human; settings: Hep3B (p53 null) cells, 100 µM SP-141 co-incubation, 15-120 min
Procedure: as §3, §4

[6] = target: MDM2; settings: read-out: Binding affinity determined by SPR analysis; cited from earlier work
[7] = target: MDM2 protein; parameters: method as in PMID 25271708; settings: read-out: Binding affinity (Ki); cited from earlier work
[8] = system: HepG2 cells; parameters: method as in PMID 25271708, PMID 31832522; settings: 0.5–1.0 µM for 24 h; cited from earlier work
[9] = system: MCF-7 xenograft; parameters: method as in PMID 25271708, PMID 31832522, PMID 29354330; settings: 40 mg/kg i.p., 5 days a week, cited from earlier work
[10] = system: MCF-7 cells; test: [^18F]1 uptake with or without co-incubated 100 µM SP-141, MCF-7; type: cell-based, human; settings: 100 µM SP-141 co-incubation, 15 min
Procedure: as §3, §4

[11] = system: MCF-7 cells; parameters: method as in PMID 25271708, PMID 31832522; settings: 0.5–1.0 µM for 24 h; cited from earlier work
[12] = system: HepG2 xenograft; parameters: method as in PMID 25271708, PMID 31832522, PMID 29354330; settings: 40 mg/kg i.p., 5 days a week, cited from earlier work

CCOc1cc(C(C)(C)C)ccc1C1=N[C@@](C)(c2ccc(Cl)cc2)[C@@](C)(c2ccc(Cl)cc2)N1C(=O)N1CCN(CCCS(C)(=O)=O)CC1 [RG7112]
Increase in median MDM2 gene expression levels [1]: 2.8 fold

COc1ccc(C2=N[C@@H](c3ccc(Cl)cc3)[C@@H](c3ccc(Cl)cc3)N2C(=O)N2CCNC(=O)C2)c(OC(C)C)c1 [Nutlin-3, reference compound]
Change of [^18F]1 uptake after pretreatment ([2]; 1 and 5 µM Nutlin-3, 21 h): significant increases
Inhibitory effect of pretreatment on [^18F]1 uptake ([2]; Nutlin-3 1-10 µM for 21 h): did not show any inhibitory effects
Change of [^18F]1 uptake after pretreatment ([3]; 10 µM Nutlin-3, 21 h): significant increases
Inhibitory effect of pretreatment on [^18F]1 uptake ([3]; Nutlin-3 1-10 µM for 21 h): did not show any inhibitory effects

COc1ccc2[nH]c3c(-c4cccc5ccccc45)nccc3c2c1 [SP-141, 6-Methoxy-1-(naphthalen-1-yl)-9H-pyrido[3,4-b]indole]
Increase of [^18F]1 uptake compared to cells incubated with only [^18F]1 [4]: 1.4 fold
Effect of SP-141 on [^18F]1 uptake [5]: no effect
Kd [6]: 43 nM
Ki [7]: 28 ± 6 nM
Decrease of [^18F]1 uptake compared to vehicle-treated cells ([2]; 1 µM SP-141 for 21 h): 76%
Cellular MDM2 levels [8]: decreases cellular MDM2 levels
Tumor growth ([9]; after 42 days): inhibited tumor growth significantly
MDM2 levels in tumors [9]: decreased MDM2 levels in tumors
Increase of [^18F]1 uptake compared to cells incubated with only [^18F]1 [10]: 1.2 fold
Effect of SP-141 pretreatment on [^18F]1 uptake ([3]; 10 µM SP-141 for 21 h): no noticeable effects
Cellular MDM2 levels [11]: decreases cellular MDM2 levels
Tumor growth ([12]; after 20 days): inhibited tumor growth significantly
MDM2 levels in tumors [12]: decreased MDM2 levels in tumors
